A short description of the assay: Compound was tested for the inhibitory effect against Gamma-amino-N-butyrate transaminase from bacteria.

A word on the Ki: it is the equilibrium dissociation constant of an inhibitor or competing ligand from its target. Low values mean a stronger hold on the target, high ones a looser hold on the target.

For `NC/C=C(\CF)C(=O)O` [(2Z)-4-ammonio-2-(fluoromethyl)but-2-enoate], the Ki is 9 µM.

Source of the values: BindingDB's records for doi:10.1021/jm00155a029 (1986).
